Measurements from US20040191334A1, “Use of transhinone derivates as cholinesterase inhibitors in treating related diseases” (priority 2003, published 2004).
pIC50: −log10 of the molar value.

Tests used:
Gram positive bacteria = conditions: broad range of Gram positive bacteria; cited from earlier work
[1] = system: neuronal cell line-SHSY5Y; assay: MTT cytotoxicity assay on SHSY5Y; type: cell-based; conditions: FIG. 5a
Excerpt: (§1) MTT assay was used to check for the toxicity of the selected primary hAChE inhibitors. Since only metabolic active cell can cleave the tetrazolium salt MTT and form a formazen dye. The O.D. measure at 540 nm is directly proportional to the number of viable cell.

[2] = biological target: T1, Human acetylcholinesterase (hAChE) (Homo sapiens, UniProt P22303); assay: Ellman assay, human acetylcholinesterase inhibition; type: biochemical; conditions: for effect on AChE inhibition (in words): selected active components, FIG. 2 and 3
T1 construct: purchased Sigma
T1 sequence (P22303 32-614): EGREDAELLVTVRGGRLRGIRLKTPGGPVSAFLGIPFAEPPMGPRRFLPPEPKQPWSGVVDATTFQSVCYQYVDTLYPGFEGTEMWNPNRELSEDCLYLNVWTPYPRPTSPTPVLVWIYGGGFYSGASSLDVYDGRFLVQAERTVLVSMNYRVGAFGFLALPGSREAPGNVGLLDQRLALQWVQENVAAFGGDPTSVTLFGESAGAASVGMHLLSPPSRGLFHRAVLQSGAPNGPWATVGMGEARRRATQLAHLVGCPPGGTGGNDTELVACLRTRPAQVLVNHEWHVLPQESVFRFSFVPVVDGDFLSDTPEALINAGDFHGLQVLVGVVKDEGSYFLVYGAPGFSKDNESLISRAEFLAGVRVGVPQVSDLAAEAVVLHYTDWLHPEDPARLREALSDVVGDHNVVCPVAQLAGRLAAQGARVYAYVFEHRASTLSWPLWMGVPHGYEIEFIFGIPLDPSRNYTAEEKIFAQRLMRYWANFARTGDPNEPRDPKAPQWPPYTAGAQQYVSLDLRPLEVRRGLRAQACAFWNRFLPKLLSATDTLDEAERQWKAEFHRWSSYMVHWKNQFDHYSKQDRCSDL
Protocol: The screening for modest cholinesterease inhibitors by the method of Ellman assay was used. Human acetylcholinesterase (hAChE) in buffer was added to the test chemicals/TCM extract followed by the addition of acetylthiocholine (ATCI) substrates and Ellman's reagent, (5′5-dithio-bis-(2-nitrobenzoate), DTNB). The AChE inhibitory activity was monitored by the release of thiocholine which was then reacted with DTNB to form a bright yellow product. The optical densities of the color product formed was spectrophotometrically determined.
After 10 minutes, the optical densities were measured in a 96-well plate reader at 415 nm. Optical densities was inversely proportional to the inhibiting activity.
Selected active components were dissolved in 50% DMSO. 100% DMSO was not recommended in this assay as it lowers the enzyme vitality.
Ellman assay was performed on the selected active components, protocatechualdehyde (MW=138.12), cryptotanshinone (MW=296), salvianic acid B (MW=718) and dihydrotanshinone I (MW=278). 10-fold dilution was made with highest concentration at 40 μM. (FIG. 2)
10-fold dilution was made with the highest concentration at 80 μM. (FIG. 3)

[3] = system: mouse neuronal cell line N1E-115; assay: MTT cytotoxicity assay on N1E-115; type: cell-based; conditions: FIG. 5b
Excerpt: as §1

[4] = system: interleukin-12 (IL-12) and interferon-gamma (IFN-gamma) production; conditions: compared with cryptotanshinone and tanshinone I; cited from earlier work
[5] = biological target: T2, butrylcholinesterase (hBChE) (Homo sapiens, UniProt P06276); assay: Ellman assay with butrylcholinesterase (specificity); type: biochemical; conditions: hAChE run in parallel; FIGS. 4a and 4b
T2 construct: purchased Sigma
T2 sequence (P06276 29-602): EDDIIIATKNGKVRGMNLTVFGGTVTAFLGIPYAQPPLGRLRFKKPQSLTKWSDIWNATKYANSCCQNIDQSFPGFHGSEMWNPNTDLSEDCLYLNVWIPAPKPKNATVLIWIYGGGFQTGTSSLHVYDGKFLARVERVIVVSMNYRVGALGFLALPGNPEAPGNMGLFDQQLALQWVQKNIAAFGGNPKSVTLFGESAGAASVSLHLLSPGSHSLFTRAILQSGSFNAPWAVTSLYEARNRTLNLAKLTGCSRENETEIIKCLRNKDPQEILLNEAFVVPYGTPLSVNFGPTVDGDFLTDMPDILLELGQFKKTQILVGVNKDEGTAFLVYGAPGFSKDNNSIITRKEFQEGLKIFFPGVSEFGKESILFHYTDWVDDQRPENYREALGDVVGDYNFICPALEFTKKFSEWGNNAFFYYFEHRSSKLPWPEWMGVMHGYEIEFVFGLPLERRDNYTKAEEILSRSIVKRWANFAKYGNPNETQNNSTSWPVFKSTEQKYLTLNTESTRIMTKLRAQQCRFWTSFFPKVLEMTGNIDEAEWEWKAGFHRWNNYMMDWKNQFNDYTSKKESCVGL
Excerpt: In order to test the specificity of cryptotanshinone and dihydrotanshinone I towards hAChE, butrylcholinesterase (hBChE) instead of hAChE was used in Ellman assay. hBChE is concentrated in […] and it is named as pseudoesterase as it has very homology as hAChE.
Ellman assay was preformed as mentioned, except that hBChE (commercially obtained from Sigma.) was used. Ellman assay using hAChE was also preformed in parallel for comparison.

Cc1cccc2c3c(ccc12)C1=C(C(=O)C3=O)[C@@H](C)CO1 [dihydrotanshinone I]
antibacterial activity (Gram positive bacteria): antibacterial activity
MTT cytotoxicity ([1]; 1 μM): No significant cytotoxicity
pIC50 [2]: 6.10 to 6.30
MTT cytotoxicity ([3]; N1E-115, 1 μM): No significant cytotoxicity
inhibition of IL-12 and IFN-gamma production [4]: effectively inhibit
selectivity for AChE versus BChE [5]: higher selectivity for AChE than BChE

Cc1coc2c1C(=O)C(=O)c1c-2ccc2c(C)cccc12 [tanshinone I]
MTT cytotoxicity ([1]; 1 μM): No significant cytotoxicity
pIC50 [2]: ~4.15
MTT cytotoxicity ([3]; N1E-115, 1 μM): No significant cytotoxicity

Cc1coc2c1C(=O)C(=O)c1c-2ccc2c1CCCC2(C)C [tanshinone IIA, reference compound]
effect on AChE inhibition (in words) [2]: little effect

O=C(C=Cc1ccc(O)c2c1C(C(=O)OC(Cc1ccc(O)c(O)c1)C(=O)O)C(c1ccc(O)c(O)c1)O2)OC(Cc1ccc(O)c(O)c1)C(=O)O (centres unmarked) [salvianic acid B, reference compound]
effect on AChE inhibition (in words) [2]: little effect

O=Cc1ccc(O)c(O)c1 [protocatechualdehyde, reference compound]
effect on AChE inhibition (in words) [2]: little effect

C[C@H]1COC2=C1C(=O)C(=O)c1c2ccc2c1CCCC2(C)C [cryptotanshinone]
antibacterial activity (Gram positive bacteria): antibacterial activity
MTT cytotoxicity ([1]; 1-50 μM): No significant cytotoxicity
pIC50 [2]: 5.10 to 5.30
MTT cytotoxicity ([3]; N1E-115, 1-50 μM): No significant cytotoxicity
selectivity for AChE versus BChE [5]: higher selectivity for AChE than BChE
